# ChEMBL document CHEMBL1122330, “Studies on v-triazoles. 7. Antiallergic 9-oxo-1H,9H-benzopyrano[2,3-d]-v-triazoles” (1983)
# Legend:
# Assay type in all cases: functional
# Rattus norvegicus [1] = assay: Inhibition of passive cutaneous anaphylaxis (PCA) in Charles Rivers Sprague-Dawley rat after intravenous administration; value range […]
# Rattus norvegicus [2] = assay: Inhibition of passive cutaneous anaphylaxis (PCA) in Charles Rivers Sprague-Dawley rat after intravenous administration
# Rattus norvegicus [3] = assay: Inhibition of passive cutaneous anaphylaxis (PCA) in Charles Rivers Sprague-Dawley rat after intravenous administration; value range from 0.3 to 0.5
# Rattus norvegicus [4] = assay: Inhibition of passive cutaneous anaphylaxis (PCA) in Charles Rivers Sprague-Dawley rat after intravenous administration; value range from 1.6 to 3.0
# Rattus norvegicus [5] = assay: Inhibition of passive cutaneous anaphylaxis (PCA) in Charles Rivers Sprague-Dawley rat after intravenous administration; value range from 4.1 to 5.8
# Rattus norvegicus [6] = assay: Inhibition of passive cutaneous anaphylaxis (PCA) in Charles Rivers Sprague-Dawley rat after intravenous administration; value range from 0.1 to 0.4
# Rattus norvegicus [7] = assay: Inhibition of passive cutaneous anaphylaxis (PCA) in Charles Rivers Sprague-Dawley rat after intravenous administration; value range from 0.8 to 1.4
# Rattus norvegicus [8] = assay: Inhibition of passive cutaneous anaphylaxis (PCA) in Charles Rivers Sprague-Dawley rat after intravenous administration; value range from 0.03 to 0.6
# Rattus norvegicus [9] = assay: Inhibition of passive cutaneous anaphylaxis (PCA) in Charles Rivers Sprague-Dawley rat after intravenous administration; value range from 0.4 to 0.9
# Rattus norvegicus [10] = assay: Inhibition of passive cutaneous anaphylaxis (PCA) in Charles Rivers Sprague-Dawley rat after intravenous administration; value range from 1.4 to 2.4
# Rattus norvegicus [11] = assay: Inhibition of passive cutaneous anaphylaxis (PCA) in Charles Rivers Sprague-Dawley rat after intravenous administration; value range from 0.05 to 0.6
# Rattus norvegicus [12] = assay: Inhibition of passive cutaneous anaphylaxis (PCA) in Charles Rivers Sprague-Dawley rat after intravenous administration; value range from 0.8 to 1.6
# Rattus norvegicus [13] = assay: Inhibition of passive cutaneous anaphylaxis (PCA) in Charles Rivers Sprague-Dawley rat after intravenous administration; value range from 0.2 to 0.3
# Rattus norvegicus [14] = assay: Inhibition of passive cutaneous anaphylaxis (PCA) in Charles Rivers Sprague-Dawley rat after intravenous administration; value range from 1.8 to 2.7
# Rattus norvegicus [15] = assay: Inhibition of passive cutaneous anaphylaxis (PCA) in Charles Rivers Sprague-Dawley rat after intravenous administration; value range from 1.4 to 2.1
# Rattus norvegicus [16] = assay: Inhibition of passive cutaneous anaphylaxis (PCA) in Charles Rivers Sprague-Dawley rat after intravenous administration; value range from 1.1 to 1.8
# Rattus norvegicus [17] = assay: Inhibition of passive cutaneous anaphylaxis (PCA) in Charles Rivers Sprague-Dawley rat after intravenous administration; value range from 0.8 to 1.5
# Rattus norvegicus [18] = assay: Inhibition of passive cutaneous anaphylaxis (PCA) in Charles Rivers Sprague-Dawley rat after intravenous administration; value range from 6.2 to 7.8
# Rattus norvegicus [19] = assay: Inhibition of passive cutaneous anaphylaxis (PCA) in Charles Rivers Sprague-Dawley rat after intravenous administration; value range from 1.9 to 22.5
# Rattus norvegicus [20] = assay: Inhibition of passive cutaneous anaphylaxis (PCA) in Charles Rivers Sprague-Dawley rat after intravenous administration; value range from 0.3 to 0.8
# Rattus norvegicus [21] = assay: Inhibition of passive cutaneous anaphylaxis (PCA) in Charles Rivers Sprague-Dawley rat after intravenous administration; value range from 1.5 to 2.9
smiles,measurement,setting,value
COc1ccc2oc3nnnc-3c(O)c2c1,ED50,Rattus norvegicus [1],1.7 mg/kg
CCCc1ccc(OC)c2c(O)c3nnnc-3oc12,ED50,Rattus norvegicus [2],> 10 mg/kg
COc1ccc2c(O)c3nnnc-3oc2c1C,ED50,Rattus norvegicus [3],0.4 mg/kg
Oc1c2nnnc-2oc2ccc3c(c12)CCCC3,ED50,Rattus norvegicus [4],2.1 mg/kg
Cc1ccc2oc3nnnc-3c(O)c2c1,ED50,Rattus norvegicus [5],5 mg/kg
Cc1c(OS(C)(=O)=O)ccc2c(O)c3nnnc-3oc12,ED50,Rattus norvegicus [6],0.2 mg/kg
CCCc1c(O)ccc2c(O)c3nnnc-3oc12,ED50,Rattus norvegicus [7],1.1 mg/kg
COc1ccc2c(O)c3nnnc-3oc2c1,ED50,Rattus norvegicus [8],0.3 mg/kg
Cc1ccc2oc3nnnc-3c(O)c2c1C,ED50,Rattus norvegicus [9],0.6 mg/kg
Oc1ccc2c(O)c3nnnc-3oc2c1,ED50,Rattus norvegicus [10],1.8 mg/kg
Cc1ccc2c(O)c3nnnc-3oc2c1C,ED50,Rattus norvegicus [11],0.3 mg/kg
Cc1cc(C)c2c(O)c3nnnc-3oc2c1C,ED50,Rattus norvegicus [12],1.2 mg/kg
CS(=O)(=O)Oc1ccc2c(O)c3nnnc-3oc2c1,ED50,Rattus norvegicus [13],0.2 mg/kg
Cc1c(O)ccc2c(O)c3nnnc-3oc12,ED50,Rattus norvegicus [14],2.2 mg/kg
Oc1cccc2oc3nnnc-3c(O)c12,ED50,Rattus norvegicus [15],1.7 mg/kg
Oc1c2nnnc-2oc2ccccc12,ED50,Rattus norvegicus [16],1.4 mg/kg
CCCc1c(OC)ccc2c(O)c3nnnc-3oc12,ED50,Rattus norvegicus [17],1 mg/kg
CCCc1ccc(O)c2c(O)c3nnnc-3oc12,ED50,Rattus norvegicus [18],7 mg/kg
Cc1cc2oc3nnnc-3c(O)c2cc1C,ED50,Rattus norvegicus [3],0.4 mg/kg
COc1cccc2oc3nnnc-3c(O)c12,ED50,Rattus norvegicus [19],3.5 mg/kg
Oc1c2nnnc-2oc2cc3c(cc12)CCCC3,ED50,Rattus norvegicus [20],0.6 mg/kg
O=C([O-])c1cc(=O)c2c(OCC(O)COc3cccc4oc(C(=O)[O-])cc(=O)c34)cccc2o1.[Na+].[Na+] [CROMOLYN SODIUM],ED50,Rattus norvegicus [21],2 mg/kg
